Tested on: Endogenous Huntingtin Protein (capture with MW1 (expanded polyglutamine) or MAB2166 antibody)
Assay: Endogenous Huntingtin Protein Assay (ELISA-based Meso Scale Discovery electrochemiluminescence assay)
Format: cell-based
Conditions: MSD electrochemiluminescence platform
Procedure, shortened: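 MSD electrochemiluminescence sandwich immunoassay: plates coated with 1 μg/mL MW1 or MAB2166 capture antibody, samples incubated overnight at 4 °C. Detection with rabbit monoclonal #5656S then SULFO-TAG anti-rabbit (each 0.25 μg/mL, 1 h RT).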

IC50	Compound
≤ 100 nM	[2H]C([2H])([2H])n1cc(-c2cnc(-c3ccc(O[C@H]4C[C@@H](C)NC5(CC5)C4)nn3)c(O)c2)cn1 [Compound 82, 2-(6-{[(5R,7S)-5-methyl-4-azaspiro[2.5]octan-7-yl]oxy}pyridazin-3-yl)-5-[1-(^2H3)methyl-1H-pyrazol-4-yl]pyridin-3-ol]
≤ 100 nM	C[C@@H]1CN(c2ccc(-c3ncc(-c4ccc5nn(C)cc5c4)cc3O)nn2)C[C@H](C)N1 [Compound 124, 2-{6-[(3R,5S)-3,5-dimethylpiperazin-1-yl]pyridazin-3-yl}-5-(2-methyl-2H-indazol-5-yl)pyridin-3-ol and 2-{6-[(3S,5R)-3,5-dimethylpiperazin-1-yl]pyridazin-3-yl}-5-(2-methyl-2H-indazol-5-yl)pyridin-3-ol]
100 to 500 nM	C[C@@H]1CN(c2cnc(-c3ncc(-c4cc(F)c5nn(C)cc5c4)cc3O)nn2)C[C@H](C)N1 [Compound 164, 2-{6-[(3R,5S)-3,5-dimethylpiperazin-1-yl]-1,2,4-triazin-3-yl}-5-(7-fluoro-2-methyl-2H-indazol-5-yl)pyridin-3-ol and 2-{6-[(3S,5R)-3,5-dimethylpiperazin-1-yl]-1,2,4-triazin-3-yl}-5-(7-fluoro-2-methyl-2H-indazol-5-yl)pyridin-3-ol]
100 to 500 nM	2-(6-{[(1R,3s,5S)-1,5-dimethyl-8-azabicyclo[3.2.1]octan-3-yl]oxy}pyridazin-3-yl)-5-(1H-1,2,3-triazol-1-yl)pyridin-3-ol and 2-(6-{[(1S,3r,5R)-1,5-dimethyl-8-azabicyclo[3.2.1]octan-3-yl]oxy}pyridazin-3-yl)-5-(1H-1,2,3-triazol-1-yl)pyridin-3-ol [Compound 71]
≤ 100 nM	CC[C@H]1CN(c2ccc(-c3ncc(-c4cn[nH]c4)cc3O)nn2)CCN1 [Compound 132, 2-{6-[(3S)-3-ethylpiperazin-1-yl]pyridazin-3-yl}-5-(1H-pyrazol-4-yl)pyridin-3-ol]
≤ 100 nM	CC(C)[C@H]1CN(c2ncc(-c3ncc(-c4cc(F)c5nn(C)cc5c4)cc3O)nn2)CCN1 [Compound 155, 5-(7-fluoro-2-methyl-2H-indazol-5-yl)-2-{3-[(3S)-3-(propan-2-yl)piperazin-1-yl]-1,2,4-triazin-6-yl}pyridin-3-ol]
≤ 100 nM	[2H]C([2H])([2H])n1cc(-c2cnc(-c3ccc(N4CCC(NC(C)(C)C)C4)nn3)c(O)c2)cn1 (stereo not drawn) [Compound 29, 2-{6-[3-(tert-butylamino)pyrrolidin-1-yl]pyridazin-3-yl}-5-[1-(^2H3)methyl-1H-pyrazol-4-yl]pyridin-3-ol]
≤ 100 nM	COc1cc(-c2cnc(-c3cnc(N4CC[C@@H](NC(C)(C)C)C4)nn3)c(O)c2)cc2cn(C)nc12 [Compound 146, 2-{3-[(3R)-3-(tert-butylamino)pyrrolidin-1-yl]-1,2,4-triazin-6-yl}-5-(7-methoxy-2-methyl-2H-indazol-5-yl)pyridin-3-ol]
≤ 100 nM	COc1cc(-c2cnc(-c3ccc(N4CCNC(C)C4)nn3)c(O)c2)cc2cn(C)nc12 (stereo not drawn) [Compound 95, 5-(7-methoxy-2-methyl-2H-indazol-5-yl)-2-[6-(3-methylpiperazin-1-yl)pyridazin-3-yl]pyridin-3-ol]
≤ 100 nM	Cn1cc2cc(-c3cnc(-c4cnc(N5CCN[C@@H](C6CC6)C5)nn4)c(O)c3)cc(F)c2n1 [Compound 158, 2-{3-[(3S)-3-cyclopropylpiperazin-1-yl]-1,2,4-triazin-6-yl}-5-(7-fluoro-2-methyl-2H-indazol-5-yl)pyridin-3-ol]
≤ 100 nM	CN[C@@H]1CCN(c2ccc(-c3ncc(-c4cc(OC)ncn4)cc3O)nn2)C1 [Compound 70, 5-(6-methoxypyrimidin-4-yl)-2-{6-[(3R)-3-(methylamino)pyrrolidin-1-yl]pyridazin-3-yl}pyridin-3-ol]
≤ 100 nM	Cc1cn2nc(-c3cnc(-c4ccc(O[C@H]5CC(C)(C)NC(C)(C)[C@H]5F)nn4)c(O)c3)cc(C)c2n1 [Compound 38, 5-(2,8-dimethylimidazo[1,2-b]pyridazin-6-yl)-2-(6-{ [(3R,4S)-3-fluoro-2,2,6,6-tetramethylpiperidin-4-yl]oxy}pyridazin-3-yl)pyridin-3-ol or 5-(2,8-dimethylimidazo[1,2-b]pyridazin-6-yl)-2-(6-{ [(3S,4R)-3-fluoro-2,2,6,6-tetramethylpiperidin-4-yl]oxy}pyridazin-3-yl)pyridin-3-ol]
≤ 100 nM	Cn1cc2cc(-c3cnc(-c4ccc(O[C@H]5CC(C)(C)NC(C)(C)[C@H]5F)nn4)c(O)c3)cc(F)c2n1 (single isomer, unassigned) [Compound 35, 5-(7-fluoro-2-methyl-2H-indazol-5-yl)-2-(6-{[(3R,4S)-3-fluoro-2,2,6,6-tetramethylpiperidin-4-yl]oxy}pyridazin-3-yl)pyridin-3-ol or 5-(7-fluoro-2-methyl-2H-indazol-5-yl)-2-(6-{[(3S,4R)-3-fluoro-2,2,6,6-tetramethylpiperidin-4-yl]oxy}pyridazin-3-yl)pyridin-3-ol]
≤ 100 nM	Cc1cn2cc(-c3cnc(-c4cnc(N5CCN(C)CC5)nn4)c(O)c3)cc(C)c2n1 [Compound 153, 5-(2,8-dimethylimidazo[1,2-a]pyridin-6-yl)-2-[3-(4-methylpiperazin-1-yl)-1,2,4-triazin-6-yl]pyridin-3-ol]
500 to 1000 nM	Cn1cc2c(-c3cnc(-c4ccc(O[C@@H]5CC(C)(C)NC(C)(C)[C@@H]5F)nn4)c(O)c3)ccc(F)c2n1.Cn1cc2c(-c3cnc(-c4ccc(O[C@H]5CC(C)(C)NC(C)(C)[C@H]5F)nn4)c(O)c3)ccc(F)c2n1 (mixture of isomers) [Compound 58, 5-(7-fluoro-2-methyl-2H-indazol-4-yl)-2-(6-{[(3R,4S)-3-fluoro-2,2,6,6-tetramethylpiperidin-4-yl]oxy}pyridazin-3-yl)pyridin-3-ol and 5-(7-fluoro-2-methyl-2H-indazol-4-yl)-2-(6-{[(3S,4R)-3-fluoro-2,2,6,6-tetramethylpiperidin-4-yl]oxy}pyridazin-3-yl)pyridin-3-ol]

Compound	IC50
C[C@]12CC[C@](C)(C[C@@H](Oc3ccc(-c4ncc(-c5cncnc5)cc4O)nn3)C1)N2 [Compound 36, 2-(6-{[(1R,3s,5S)-1,5-dimethyl-8-azabicyclo[3.2.1]octan-3-yl]oxy}pyridazin-3-yl)-5-(pyrimidin-5-yl)pyridin-3-ol and 2-(6-{[(1S,3r,5R)-1,5-dimethyl-8-azabicyclo[3.2.1]octan-3-yl]oxy}pyridazin-3-yl)-5-(pyrimidin-5-yl)pyridin-3-ol]	500 to 1000 nM
[2H]C([2H])([2H])n1cc(-c2cnc(-c3ccc(N(C)C4CC(C)(C)NC5(CC5)C4)nn3)c(O)c2)cn1 (stereo not drawn) [Compound 53, 2-{6-[(5,5-dimethyl-4-azaspiro[2.5]octan-7-yl)(methyl)amino]pyridazin-3-yl}-5-[1-(^2H3)methyl-1H-pyrazol-4-yl]pyridin-3-ol]	≤ 100 nM
Cc1cn2cc(-c3cnc(-c4ccc(N5C[C@@H](C)N[C@@H](C)C5)nn4)c(O)c3)cnc2n1 [Compound 115, 2-{6-[(3R,5S)-3,5-dimethylpiperazin-1-yl]pyridazin-3-yl}-5-(2-methylimidazo[1,2-a]pyrimidin-6-yl)pyridin-3-ol and 2-{6-[(3S,5R)-3,5-dimethylpiperazin-1-yl]pyridazin-3-yl}-5-(2-methylimidazo[1,2-a]pyrimidin-6-yl)pyridin-3-ol]	100 to 500 nM
6-[6-(6-{[(3R,4S)-3-fluoro-2,2,6,6-tetramethylpiperidin-4-yl]oxy}pyridazin-3-yl)-5-hydroxypyridin-3-yl]-2-methylimidazo[1,2-a]pyridine-8-carbonitrile and 6-[6-(6-{[(3S,4R)-3-fluoro-2,2,6,6-tetramethylpiperidin-4-yl]oxy}pyridazin-3-yl)-5-hydroxypyridin-3-yl]-2-methylimidazo[1,2-a]pyridine-8-carbonitrile [Compound 59]	≤ 100 nM
C[C@@H]1CN(c2ccc(-c3ncc(-c4cc(F)c5nn(C)cc5c4)cc3O)nn2)C[C@H](C)N1 [Compound 69, 2-{6-[(3R,5S)-3,5-dimethylpiperazin-1-yl]pyridazin-3-yl}-5-(7-fluoro-2-methyl-2H-indazol-5-yl)pyridin-3-ol and 2-{6-[(3S,5R)-3,5-dimethylpiperazin-1-yl]pyridazin-3-yl}-5-(7-fluoro-2-methyl-2H-indazol-5-yl)pyridin-3-ol]	≤ 100 nM
CN(c1cnc(-c2ncc(-n3nccn3)cc2O)nn1)C1CC(C)(C)NC(C)(C)C1 [Compound 161, 2-{6-[methyl(2,2,6,6-tetramethylpiperidin-4-yl)amino]-1,2,4-triazin-3-yl}-5-(2H-1,2,3-triazol-2-yl)pyridin-3-ol]	≤ 100 nM
